From PubChem BioAssay (NCI) come the findings set out here.

Where “and” joins values, the source holds several entries; their conditions need not be identical. Equal entries are not always repeated.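 Step 1: Grow cells in 96-well plates. Step 2: Expose to compound for 48 hours at 5 concentrations. Step 3: Interpolate endpoints linearly; if unreached, use highest concentration. GI50: concentration for 50% inhibition of growth. Definition used: TGI = concentration required for complete inhibition of growth.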 Some results are limits rather than exact numbers.

Among the test systems are 786-0 renal; SF-295 CNS; UACC-257 melanoma; HOP-92 NSCLC; SK-OV-3 ovarian; HCT-15 colon; U251 CNS; NCI-H226 lung; SF-539 CNS; SNB-19 CNS.
Experiment in all cases: NCI anticancer screen, dose series, 48 h

With `O=C(Nc1ccccc1OC(F)(F)F)Nc1n[nH]c2ccccc12`, the GI50 with 786-0 renal is 38.7 µM; in the assay on SF-295 CNS it was 39 µM; with UACC-257 melanoma, 47.2 µM; with HOP-92 NSCLC, 12.9 µM; in the assay with SK-OV-3 ovarian it was above 100 µM; with HCT-15 colon, 36.2 µM. Also, the GI50 in the assay with U251 CNS was 31.1 µM; in the assay on NCI-H226 lung, 26.1 µM; with SF-539 CNS it was 30.5 µM; with SNB-19 CNS, 78.3 µM. The TGI was above 100 µM in the assay on 786-0 renal; above 100 µM in the assay on SF-295 CNS; above 100 µM with UACC-257 melanoma; 83.2 µM in the assay on HOP-92 NSCLC; above 100 µM in the assay with SK-OV-3 ovarian; above 100 µM with HCT-15 colon. The TGI in the assay with U251 CNS, with NCI-H226 lung, in the assay on SF-539 CNS and in the assay with SNB-19 CNS was above 100 µM throughout.

With `Clc1cc2nsnc2c(Cl)n1`, the TGI is 31.2 µM with 786-0 renal; above 100 µM in the assay with SF-295 CNS; 72.3 µM with UACC-257 melanoma; 33.1 µM in the assay on HOP-92 NSCLC; above 100 µM with SK-OV-3 ovarian; 45.6 µM with HCT-15 colon. Moreover, the TGI in the assay with U251 CNS stood at 40.1 µM; in the assay on NCI-H226 lung, 42.3 µM; in the assay with SF-539 CNS it was 46.1 µM; in the assay on SNB-19 CNS, 36.7 µM.

Consider `COC(=O)[C@@H]1[C@H](O)[C@H](C)[C@H](O)[C@@](C)(O)/C=C\C=C(C)C(=O)Nc2c(C)c(OC(C)=O)c3c(c2O)C(=O)C(C)=C2OCOC(=C23)C(C)=C[C@@](C)(O)[C@H](O)[C@@H](C)[C@H]1OC(C)=O`, for which the TGI was above 100 µM with 786-0 renal; above 100 µM in the assay with SF-295 CNS; > 100 µM and 66.9 µM and 93.1 µM in the assay on UACC-257 melanoma; above 100 µM in the assay on HOP-92 NSCLC; above 100 µM with SK-OV-3 ovarian; > 100 µM and 66.9 µM with HCT-15 colon. For the same compound, the TGI is > 100 µM and > 66.9 µM and 62.8 µM in the assay with U251 CNS; above 100 µM in the assay on NCI-H226 lung; above 100 µM in the assay on SF-539 CNS; above 100 µM with SNB-19 CNS. For the same compound, the GI50 in the assay on SF-295 CNS was above 66.9 µM; in the assay with UACC-257 melanoma, 35.2 µM; in the assay on SK-OV-3 ovarian, above 66.9 µM; in the assay with HCT-15 colon, 42.5 µM; in the assay with U251 CNS it was above 66.9 µM; with SF-539 CNS, above 66.9 µM. The GI50 with SNB-19 CNS was above 66.9 µM.

As to `O=C1C(=O)N(c2ccc(Cl)cc2Cl)C(=O)C(=O)C1c1nc2ccccc2s1`, the TGI in the assay on 786-0 renal, in the assay with SF-295 CNS, with UACC-257 melanoma, in the assay on HOP-92 NSCLC, in the assay on SK-OV-3 ovarian and with HCT-15 colon was above 100 µM each time. Besides, the TGI with U251 CNS, in the assay with NCI-H226 lung, with SF-539 CNS and in the assay on SNB-19 CNS was above 100 µM throughout.

For the compound `CC(=O)NNc1nc(C)c(C(=O)NNC(=O)C(=O)Nc2c(Cl)cc([N+](=O)[O-])cc2Cl)s1`, the TGI was above 100 µM with 786-0 renal; above 100 µM with SF-295 CNS; 68.7 µM with UACC-257 melanoma; 56.2 µM in the assay on HOP-92 NSCLC; above 100 µM in the assay on SK-OV-3 ovarian; above 100 µM with HCT-15 colon. For the same compound, the TGI with U251 CNS is above 100 µM; in the assay on NCI-H226 lung it was 82.6 µM; in the assay on SF-539 CNS it was 66.8 µM; in the assay with SNB-19 CNS, above 100 µM.

With `COc1ccc2c(c1)/C(=C/c1c(C)nc3sc(C)nn13)C(=O)N2`, the GI50 in the assay on 786-0 renal is 6.08 µM; with SF-295 CNS it was 1.48 µM; with UACC-257 melanoma, above 100 µM; in the assay on HOP-92 NSCLC it was 9.86 µM; in the assay with SK-OV-3 ovarian it was 3.62 µM; in the assay on HCT-15 colon, 0.879 µM. Further, the GI50 was 4.08 µM in the assay on U251 CNS, above 28.4 µM in the assay on NCI-H226 lung, 3.29 µM in the assay with SF-539 CNS and 1.94 µM in the assay with SNB-19 CNS. Also, the TGI in the assay on 786-0 renal is above 100 µM; in the assay with SF-295 CNS, 50.3 µM; with UACC-257 melanoma, above 100 µM; in the assay on HOP-92 NSCLC it was above 77.8 µM; in the assay on SK-OV-3 ovarian, above 27.5 µM; in the assay with HCT-15 colon, above 100 µM. For the same compound, the TGI in the assay with U251 CNS is above 100 µM; in the assay with NCI-H226 lung, above 100 µM; with SF-539 CNS, above 50.7 µM; with SNB-19 CNS, above 37 µM.

With `CCC(CO)Nc1nc2ccc(Cl)cc2c2ccccc12` (configuration not stated), the GI50 was 7.37 µM in the assay with 786-0 renal; 2.81 µM in the assay on SF-295 CNS; 15.3 µM in the assay with UACC-257 melanoma; 3.06 µM with HOP-92 NSCLC; 11.8 µM in the assay with SK-OV-3 ovarian; 3.7 µM in the assay on HCT-15 colon. The GI50 was 5.18 µM in the assay on U251 CNS, 11.4 µM in the assay on NCI-H226 lung, 10.4 µM with SF-539 CNS and 8.53 µM in the assay on SNB-19 CNS. The TGI with 786-0 renal came to 20.1 µM; in the assay on SF-295 CNS it was 15.3 µM; in the assay with UACC-257 melanoma it was 28.6 µM; in the assay on HOP-92 NSCLC, 14.8 µM; in the assay with SK-OV-3 ovarian, 24.1 µM; with HCT-15 colon, 15.4 µM. The TGI came out at 18.3 µM in the assay with U251 CNS, 31.7 µM in the assay with NCI-H226 lung, 22.2 µM in the assay on SF-539 CNS and 21.3 µM in the assay with SNB-19 CNS.

Regarding `COc1cc(Cc2cnc(/N=C3\C(=O)N(CN4CCN(c5c(F)cc6c(=O)c(C(=O)O)cn(C7CC7)c6c5OC)CC4C)c4ccc(F)cc43)nc2N)cc(OC)c1OC` (configuration not stated), the GI50 is 11.1 µM in the assay with 786-0 renal; 14.4 µM in the assay on SF-295 CNS; 22.3 µM in the assay on UACC-257 melanoma; 7.64 µM with HOP-92 NSCLC; 15 µM in the assay with SK-OV-3 ovarian; 1.35 µM with HCT-15 colon. Moreover, the GI50 with U251 CNS was 8.79 µM; with NCI-H226 lung, 13.8 µM; in the assay with SF-539 CNS, 19.9 µM; in the assay on SNB-19 CNS, 17.7 µM. Further, the TGI with 786-0 renal was determined as 23.1 µM; with SF-295 CNS, 30.2 µM; in the assay on UACC-257 melanoma, 44.1 µM; with HOP-92 NSCLC, 21.8 µM; with SK-OV-3 ovarian it was 43.1 µM; in the assay on HCT-15 colon, 5.18 µM. Moreover, the TGI was found to be 21 µM in the assay with U251 CNS, 43.3 µM with NCI-H226 lung, 47.5 µM with SF-539 CNS and 51.3 µM in the assay with SNB-19 CNS.

For `COC(CN1C(=O)c2cccc3cccc(c23)C1=O)OC`, the TGI in the assay with 786-0 renal, with SF-295 CNS, with UACC-257 melanoma, in the assay on HOP-92 NSCLC, in the assay on SK-OV-3 ovarian and in the assay on HCT-15 colon was above 100 µM throughout. The TGI in the assay with U251 CNS, with NCI-H226 lung, with SF-539 CNS and in the assay with SNB-19 CNS was above 100 µM in each case.
